We go through three molecules from patent US20210253518A1, “KINASE INHIBITOR” (NISSAN CHEMICAL CORPORATION, priority 2018, published 2021).

For experiment [1], the system named is YAP (phospho-S127 and total). In words: YAP phosphorylation inhibitory action in SKOV3 cells (HTRF, YAP-total kit / YAP phospho-S127 kit). The format is cell-based, human. The following applies: 10 μM, 1 hr, Non-treatment as 100%. On the procedure:
Human ovarian cancer cell line SKOV3 (manufactured by DS Pharma Biomedical Co., Ltd) was precultured (single layer culture) in a 15% FBS-containing McCoy's 5a medium (manufactured by Sigma Ltd. Aldrich). The above-mentioned cells in the logarithmic growth phase were washed with PBS, a 0.25% (w/v) trypsin-1 mmol/L ethylenediaminetetraacetic acid (EDTA) solution (manufactured by Fujifilm Wako Pure Chemical Corporation) was added, and adherent cells were detached by incubating at 37° C. for 3 min. The above-mentioned medium was added and the mixture was centrifuged and resuspended in the same medium.
According to the method of patent document (WO 2014/017513), a composition of 10% FBS-containing DMEM medium (Phenol-red free, manufactured by FUJIFILM Wako Pure Chemical Corporation) containing 0.015% (w/v) deacylated gellan gum (KELCOGEL CG-LA, manufactured by SANSHO Co., Ltd.) was prepared using FCeM-series Preparation Kit (manufactured by FUJIFILM Wako Pure Chemical Corporation). Then, various cells prepared above were suspended in the above-mentioned medium composition (3D conditions) added with deacylated gellan gum or a medium without the addition (2D conditions), and seeded on a 50 μL/well (manufactured by Corning Incorporated, 96 well flat bottom plate, #3585, 2D conditions) or 25 μL/well (manufactured by Corning Incorporated, 96 well low adhesion flat bottom plate, #3474) at 100000 cells/well. The plate was allowed to stand at 37° C. in a 5% CO2 incubator, and the compound of the present invention diluted with the medium at 2 or 6 times the final concentration, DMSO, or the medium alone was added to the plate 3 hr after the seeding at 50 μL/well (2D conditions) or 5 μL/well (3D conditions) to make the final concentration of each compound 10 μM. After culture at 37° C. in a 5% CO2 incubator for 1 hr, the supernatant was aspirated, supplemented Lysis buffer (1-fold concentration, manufactured by Cisbio, YAP-total kit or YAP phospho-S127 kit) (50 μL) was added under 2D conditions, and supplemented Lysys buffer (4-fold concentration) (10 μL) was added to the culture supernatant under 3D conditions, and the mixture was stirred by a plate shaker for 30 min. Thereafter, the plate was centrifuged, 16 μL of the supernatant was transferred to a 384-well white plate (Corning, #4512), and each antibody solution (pYAP d2 antibody or Total-YAP d2 antibody, and pYAP Cryptate antibody or Total-YAP Cryptate antibody) included in the kit was added at 4 μL/well in total, and the mixture was allowed to stand at room temperature overnight. As a blank control, pYAP Cryptate antibody or Total-YAP Cryptate antibody alone was added to cells free of stimulation with compound and the mixture was treated in the same manner (Non-treatment). The next day, the wavelengths at 665 nm and 615 nm were measured in the HTRF mode of EnVision (manufactured by PerkinElmer).
The obtained signal was calculated as follows. Ratio=signal (665 nm)/signal (615 nm)×10000, ΔR=Signal(Ratio)−Background fluorescence, and the relative value with respect to ΔR of the compound non-addition group (Non-treatment) as 100% was calculated, and the phosphorylated YAP amount or total YAP amount by each compound was evaluated.

In a further experiment the test system is YAP protein. In words: Imaging analysis of nuclear translocation in human bone marrow-derived mesenchymal stem cells. The settings on record: 10 μM, 4 hr, no addition 8.96. The format is cell-based. On the procedure:
(§1) Nine fields of view were imaged per well using a 20× objective lens of Operatta CLS. The cell nucleus region and the cytoplasm region were identified from the obtained fluorescence images by using the analysis software Harmony (manufactured by PerkinElmer), and AlexaFluor® 647 fluorescence intensity per unit area and the AlexaFluor® 555 fluorescence intensity per unit area in each region were extracted. The nuclear translocation was evaluated by calculating the ratio of the fluorescence intensity of the cell nucleus region to the fluorescence intensity of the cytoplasmic region from the extracted values. The value becomes greater than 1 as the YAP protein and TAZ protein transfer into the cell nucleus, and less than 1 when localized in the cytoplasm.
(§2) Compounds k-1:B-1, k-1:H-1, and k-1:J-1 were evaluated for nuclear translocation of YAP protein and TAZ protein. For the nuclear translocation, imaging analysis was performed using the human bone marrow-derived mesenchymal stem cells (manufactured by PromoCell) and OperettaCLS (manufactured by PerkinElmer) described in Example 4. The compounds were added such that the final concentration of the test concentration of k-1:B-1, k-1:H-1, and k-1:J-1 was 10 μM.
(§3) Human bone marrow-derived mesenchymal stem cells cultured according to the protocol recommended by PromoCell were seeded on a 96-well plate (manufactured by PerkinElmer, CellCarrier-Ultra) at 25,000 cells/90 μL/well on the cycloolefin bottom surface, and cultured in a CO2 incubator (37° C., 5% CO2) for 1 day. After culturing, k-1:B-1, k-1:H-1, and k-1:J-1 solutions having a concentration of 100 μM were added. The cells were cultured in a CO2 incubator at 37° C. for 4 hr. The medium was exchanged with 4% para-formaldehyde solution, and the cells were fixed by allowing to stand at room temperature for 10 min. The fixed cells were subjected to immunostaining by the method described in Example 4.

The next experiment concerns TAZ protein. Described as above. The format is cell-based. The settings on record: 10 μM, 4 hr, no addition 10.05. On the procedure: as §1, §2, §3

Regarding `CCC(=NNC(=O)CNc1ccccc1)c1ccc(O)c(C)c1O` [k-1:H-1], in experiment [1] (2D condition), the “phosphorylated YAP (%)” value is recorded as 38% and the “total YAP (%)” value is 94%. In addition, in experiment [1] (3D condition), the “phosphorylated YAP (%)” value amounted to 80% and the “total YAP (%)” value worked out at 107%. Besides, in the experiment on YAP protein, the “YAP nuclear translocation rate” value was found to be 11.55. The “TAZ nuclear translocation rate” value in the experiment on TAZ protein worked out at 13.42.
Take `CC/C(=N\NC(=O)C(C)Nc1ccccc1)c1ccc(O)c(C)c1O` (stereo not drawn) [k-1:B-1]: in experiment [1] (2D condition), the “phosphorylated YAP (%)” value is reported as 14% and the “total YAP (%)” value came to 89%. Besides, in experiment [1] (3D condition), the “phosphorylated YAP (%)” value is recorded as 31% and the “total YAP (%)” value came to 99%. Moreover, the “YAP nuclear translocation rate” value in the experiment with YAP protein stood at 10.17. Also, the “TAZ nuclear translocation rate” value with TAZ protein worked out at 11.59.
With `CC/C(=N\NC(=O)NCc1cccc(O)c1)c1ccc(O)c(C)c1O` [k-1:J-1], the “phosphorylated YAP (%)” value in experiment [1] (2D condition) is on record as 13%; in experiment [1] (3D condition) it was 30%. Besides, the “total YAP (%)” value in experiment [1] (2D condition) was determined as 86%; in experiment [1] (3D condition) it was 109%. Also, the “YAP nuclear translocation rate” value in the experiment on YAP protein is reported as 12.70. Further, the “TAZ nuclear translocation rate” value in the experiment on TAZ protein was 14.95.
